Values of other authors as cited in patent US20070098804A1, “Solid particulate tadalafil having a bimodal particle size distribution” (priority 2005, published 2007).

Details: crystalline solid, reported in the PDR

CN1CC(=O)N2[C@H](c3ccc4c(c3)OCO4)c3[nH]c4ccccc4c3C[C@@H]2C1=O [Tadalafil]
solubility in water: practically insoluble in water
